Measured values published in US6762170B1, “2-(purin-9-yl)-tetrahydrofuran-3,4-diol derivatives” (SmithKlineBeecham Corporation, priority 1998, dated 2004).

Assays:
Type in all cases: cell-based
[1] = target: T1, Adenosine 2a receptor (Homo sapiens, UniProt P29274); experiment: Agonist activity against adenosine 2a receptor subtype (CHO cells, cAMP response element/SPAP reporter); settings: EC50 ratio to NECA; transfected CHO cells, basal cAMP reflected by SPAP
T1 construct: expressed in transfected cells; host or cells: Chinese hamster ovary (CHO) cells, co-transfected with a CRE-SPAP reporter
Procedure, shortened: (§1)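 CHO cells expressed the human receptor plus a cAMP response element–driven SPAP reporter. Agonism was measured as SPAP change from forskolin-enhanced cAMP for A1 and A3, and from basal cAMP for A2a. EC50 is expressed as a ratio to that of NECA.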

[2] = target: T2, Adenosine 3 receptor (Homo sapiens, UniProt P0DMS8); experiment: Agonist activity against adenosine 3 receptor subtype (CHO cells, forskolin-enhanced cAMP, SPAP reporter); settings: EC50 ratio to NECA; transfected CHO cells, forskolin-enhanced cAMP reflected by SPAP
T2 construct: expressed in transfected cells; host or cells: Chinese hamster ovary (CHO) cells, co-transfected with a CRE-SPAP reporter
T2 sequence (P0DMS8 1-318): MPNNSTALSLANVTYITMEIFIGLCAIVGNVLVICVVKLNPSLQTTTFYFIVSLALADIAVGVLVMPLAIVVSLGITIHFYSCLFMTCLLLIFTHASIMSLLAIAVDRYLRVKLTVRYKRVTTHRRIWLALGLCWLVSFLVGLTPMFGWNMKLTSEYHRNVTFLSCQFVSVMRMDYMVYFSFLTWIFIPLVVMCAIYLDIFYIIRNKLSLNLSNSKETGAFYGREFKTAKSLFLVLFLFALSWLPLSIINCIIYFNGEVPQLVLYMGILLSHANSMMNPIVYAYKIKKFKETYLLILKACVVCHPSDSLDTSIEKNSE
Procedure, shortened: as §1

[3] = target: T3, Adenosine 1 receptor (Homo sapiens, UniProt P30542); experiment: Agonist activity against adenosine 1 receptor subtype (CHO cells, forskolin-enhanced cAMP, SPAP reporter); settings: EC50 ratio to NECA; transfected CHO cells, forskolin-enhanced cAMP reflected by SPAP
T3 construct: expressed in transfected cells; host or cells: Chinese hamster ovary (CHO) cells, co-transfected with a CRE-SPAP reporter
T3 sequence (P30542 1-326): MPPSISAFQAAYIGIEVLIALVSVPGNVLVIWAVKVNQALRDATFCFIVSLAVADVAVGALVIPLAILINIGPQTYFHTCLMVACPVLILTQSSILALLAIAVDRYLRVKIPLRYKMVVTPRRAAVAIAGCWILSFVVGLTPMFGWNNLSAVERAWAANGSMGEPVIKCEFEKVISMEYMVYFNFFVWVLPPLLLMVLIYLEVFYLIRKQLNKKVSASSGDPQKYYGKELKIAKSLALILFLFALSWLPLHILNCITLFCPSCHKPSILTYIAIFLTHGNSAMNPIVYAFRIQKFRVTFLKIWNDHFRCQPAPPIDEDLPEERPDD
Procedure, shortened: as §1

T1 sequence (P29274 whole entry): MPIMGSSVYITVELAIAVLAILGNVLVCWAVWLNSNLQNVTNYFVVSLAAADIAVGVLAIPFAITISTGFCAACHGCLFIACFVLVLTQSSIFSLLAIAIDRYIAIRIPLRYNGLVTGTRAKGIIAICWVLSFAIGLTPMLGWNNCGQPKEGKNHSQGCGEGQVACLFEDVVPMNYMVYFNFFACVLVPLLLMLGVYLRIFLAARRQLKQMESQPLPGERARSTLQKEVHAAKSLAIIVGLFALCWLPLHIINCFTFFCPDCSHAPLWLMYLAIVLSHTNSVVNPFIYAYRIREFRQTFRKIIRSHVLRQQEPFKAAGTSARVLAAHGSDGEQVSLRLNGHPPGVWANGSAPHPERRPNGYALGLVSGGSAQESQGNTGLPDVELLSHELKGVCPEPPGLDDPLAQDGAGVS

Row | Molecule | A2a (EC50 values as a ratio of that of NECA) [1] | A3 (EC50 values as a ratio of that of NECA) [2] | A1 (EC50 values as a ratio of that of NECA) [3]
1 | CCc1cc(C2OC(n3cnc4c(NC(CO)Cc5ccccc5)nc(NCCN)nc43)C(O)C2O)on1 [Example 64, (2R,3R,4S,5S)-2-[2-(2-Amino-ethylamino)-6-(1S-hydroxymethyl-2-phenyl-ethylamino)-purin-9-yl]-5-(3-ethyl-isoxazol-5-yl)-tetrahydro-furan-3,4-diol diformate] | 16.03 | >262 | 44.21
2 | CCC(CC)Nc1nc(NCCN2CCCCC2)nc2c1ncn2C1OC(c2cc(Br)no2)C(O)C1O.O=CO.O=CO [Example 67, (2S,3S,4R,5R)-2-(3-Bromo-isoxazol-5-yl)-5-[6-(1-ethyl-propylamino)-2-(2-piperidin-1-yl-ethylamino)-purin-9-yl]-tetrahydro-furan-3,4-diol diformate] | 2.59 | >238 | 219.1
3 | CCOC(=O)c1cc(C2OC(n3cnc4c(NC(CC)CC)nc(NCCc5cn(C)cn5)nc43)C(O)C2O)on1 (stereo not drawn) [Example 68, 5-(5R-{6-(1-Ethyl-propylamino)-2-[2-(1-methyl-1H-imidazol-4-yl)-ethylamino]-purin-9-yl}-3S,4R-dihydroxy-tetrahydro-furan-2S-yl)-isoxazole-3-carboxylic acid ethyl ester diformate] | 30.23 | >113 | 60.30
4 | (2R,3R,4S,5S)-2-[2-Ethylamino-6-(3-iodo-benzylamino)-purin-9-yl]-5-(3-ethyl-isoxazol-5-yl)-tetrahydro-furan-3,4-diol formate [Example 66] | 8.32 | >262 | 189.98
5 | (2R,3R,4S,5S)-2-{6-(1-Ethyl-propylamino)-2-[2-(1-methyl-1H-imidazol-4-yl)-ethylamino]-purin-9-yl}-5-(3-propyl-isoxazol-5-yl)-tetrahydro-furan-3,4-diol diformate [Example 60] | 4.53 | ≧248.4 | 155.86
6 | (2R,3R,4S,5S)-2-{6-(1-Ethyl-propylamino)-2-[2-(1-methyl-1H-imidazol-4-yl)-ethylamino]-purin-9yl}-5-(3-methyl-isoxazol-5-yl)-tetrahydro-furan-3,4-diol diformate [Example 59] | 0.13 | >385 | 194.3
7 | (2S,3S,4R,5R)-2-(3-Ethyl-isoxazol-5yl)-5-[6-(3-iodo-benzylamino)-2-(2-piperidin-1-yl-ethylamino)-purin-9-yl]-tetrahydro-furan-3,4-diol diformate [Example 65] | 4.74 | >262 | 128.27

Results, then the molecule that gave them:

Row | A2a (EC50 values as a ratio of that of NECA) [1] | A3 (EC50 values as a ratio of that of NECA) [2] | A1 (EC50 values as a ratio of that of NECA) [3] | Molecule
8 | 23.73 | >180 | 298.75 | CCc1cc(C2OC(n3cnc4c(NC(CO)C(C)C)nc(NCCN5CCCC5)nc43)C(O)C2O)on1 [Example 69, (2S,3S,4R,5R)-2-(3-Ethyl-isoxazol-5-yl)-5-[6-(1S-hydroxymethyl-2-methyl-propylamino)-2-(2-pyrrolidin-1-yl-ethylamino)-purin-9-yl]-tetrahydro-furan-3,4-diol diformate]
9 | 27.39 | >184 | 149.86 | CCc1cc(C2OC(n3cnc4c(NC(CO)C(C)C)nc(NCCN5CCCCC5)nc43)C(O)C2O)on1 [Example 70, (2S,3S,4R,5R)-2-(3-Ethyl-isoxazol-5-yl)-5-[6-(1(1S-hydroxymethyl-2-methyl-propylamino)-2-(2-piperidin-1-yl-ethylamino)-purin-9-yl]-tetrahydro-furan-3,4-diol diformate]
10 | 12.75 | >184 | 79.51 | CCc1cc(C2OC(n3cnc4c(NC(CO)C(C)C)nc(NCCNc5ccccn5)nc43)C(O)C2O)on1 [Example 71, (2S,3S,4R,5R)-2-(3-Ethyl-isoxazol-5-yl)-5-{6-(1S-hydroxymethyl-2-methyl-propylamino)-2-[2-(pyridin-2-ylamino)-ethylamino]-purin-9-yl}-tetrahydro-furan-3,4-diol diformate]
11 | 5.39 | >158 | 23.79 | CCc1cc(C2OC(n3cnc4c(NC(CO)C(C)C)nc(NC(CO)Cc5ccccc5)nc43)C(O)C2O)on1 [Example 72, (2S,3S,4R,5R)-2-(3-Ethyl-isoxazol-5-yl)-5-{6-(1S-hydroxymethyl-2-methyl-propylamino)-2-(1S-hydroxymethyl-2-phenyl-ethylamino)-purin-9-yl}-tetrahydro-furan-3,4-diol diformate]
